± gives the expanded uncertainty stated by the source.
Details: 101 kPa, Liquid, Vibrating tube method

Q: Which mass density (293.15 K) does the source give for `C1CCC2=NCCCN2CC1` [1,8-diaza-7-bicyclo[5.4.0]undecene] here?
A: 1019.84 ± 0.24 kg/m3

Q: And the mass density (298.15 K)?
A: 1016.15 ± 0.24 kg/m3

Q: What about the mass density (303.15 K) of the same compound?
A: 1012.45 ± 0.24 kg/m3

Q: And the mass density (308.15 K)?
A: 1008.73 ± 0.24 kg/m3

Q: What about the mass density (313.15 K) of the same compound?
A: 1005 ± 0.23 kg/m3

Q: And the mass density (318.15 K)?
A: 1001.25 ± 0.23 kg/m3

Q: What about the mass density (323.15 K) of the same compound?
A: 997.479 ± 0.23 kg/m3

Q: What about the mass density (328.15 K) of the same compound?
A: 993.692 ± 0.23 kg/m3

Q: What about the mass density (333.15 K) of the same compound?
A: 989.886 ± 0.23 kg/m3

Q: What about the mass density (338.15 K) of the same compound?
A: 986.062 ± 0.23 kg/m3

Q: What about the mass density (343.15 K) of the same compound?
A: 982.224 ± 0.23 kg/m3

Q: And the mass density (348.15 K)?
A: 978.366 ± 0.23 kg/m3

Q: And the mass density (353.15 K)?
A: 974.493 ± 0.23 kg/m3

Q: What about the mass density (358.15 K) of the same compound?
A: 970.601 ± 0.23 kg/m3

Reference: the NIST ThermoML archive (doi:10.1016/j.fluid.2014.04.021)
